Test results from US20100184759A1, “PYRANO-PYRAZOLE-AMINES” (priority 2007, published 2010).

Assays:
σ2-receptor = target: T1, σ2-receptor (Rattus norvegicus, UniProt Q5U3Y7); test: Sigma 2 (Version B) receptor binding, [3H]-ditolylguanidine, rat liver preparation; conditions: for Ki: radioligand [3H]-ditolylguanidine 3 nM, σ1 sites masked with (+)-pentazocine; for inhibition at 1 µM: compound at 1 μM, value in square brackets
T1 construct: the σ2-Receptorpreparation was prepared from rat liver; from tissue; host or cells: rat liver membrane homogenate
T1 sequence (Q5U3Y7 1-176): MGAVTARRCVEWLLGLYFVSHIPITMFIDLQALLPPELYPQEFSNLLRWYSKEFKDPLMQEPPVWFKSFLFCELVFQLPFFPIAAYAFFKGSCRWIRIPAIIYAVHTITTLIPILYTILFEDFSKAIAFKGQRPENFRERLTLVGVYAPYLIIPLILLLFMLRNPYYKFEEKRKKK
Method: In brief the σ2-Receptorpreparation was prepared from rat liver. The livers were homogenized in 5 to 6 times of volume sucrose solution (0.32M) and homogenized. The homogenate was centrifuged at 2900 rpm, 4° C., 10 min). the supernatant was centrifuged again (31000×g, 4° C., 20 min). The pellet was resuspended in TRIS-buffer, incubated for 30 min at room temperature while stirring and centrifuged f (31000×g, 4° C., 20 min). The pellet was resuspended in cold TRIS-buffer pH 8 and homogenized. Then the protein content was measured (approx. 2 mg/mL) and the homogenate frozen at −80° C. for later use.
The radioligand used was [^3H]-Ditolylguanidin in TRIS-buffer pH 8. The σ1-receptor binding sites were masked through (+)-Pentazocin-solution in TRIS-Puffer pH 8.
In a volume of 200 μL 50 μL compound solution of varying concentration, 50 μL (+)-Pentazocin-solution (2 nM; resulting in 500 nM in the assay), 50 μL radioligand-solution (12 nM; resulting in 3 nM in the assay) and finally 50 μL of receptor preparation (approx. 2 mg/mL) were given into a well of a microplate equipped with a filter. The plate was closed and stirred for 2 h at room temperature and 500 rpm. Following that the solvents were removed by a harvester through the filter. After rinsing with H2O the filter was measured in a scintillation counter ([^3H]-protocol).

σ1-receptor = target: T2, σ1-receptor (Cavia porcellus, UniProt Q60492); test: Sigma 1 (Version B) receptor binding, [3H]-(+)-pentazocine, guinea pig brain preparation; conditions: radioligand [3H]-(+)-pentazocine 2 nM
T2 construct: the σ1-receptor preparation was prepared from guinea pig brain; from tissue; host or cells: guinea pig brain membrane homogenate
T2 sequence (Q60492 whole entry): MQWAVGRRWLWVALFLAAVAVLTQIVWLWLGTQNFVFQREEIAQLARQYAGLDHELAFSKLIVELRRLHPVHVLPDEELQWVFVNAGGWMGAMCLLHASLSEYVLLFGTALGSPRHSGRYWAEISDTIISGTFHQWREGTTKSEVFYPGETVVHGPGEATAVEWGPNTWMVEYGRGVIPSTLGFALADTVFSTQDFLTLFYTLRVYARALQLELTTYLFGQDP
Method: In brief the σ1-receptor preparation was prepared from guinea pig brain. The brains were homogenized in 5 to 6 times of volume sucrose solution (0.32M) and homogenized. The homogenate was centrifuged at 2900 rpm, 4° C., 10 min). the supernatant was centrifuged again (23500×g, 4° C., 20 min). The pellet was resuspended in Tris-buffer, incubated for 30 min at room temperature and centrifuged f (23500×g, 4° C., 20 min). The pellet was resuspended in cold TRIS-buffer and homogenized. Then the protein content was measured (approx. 1.5 mg/mL) and the homogenate frozen at −80° C. for later use.
The radioligand used was [^3H]-(+)-Pentazocin in TRIS-buffer. In a volume of 200 μL 50 μL TRIS-buffer, 50 μL compound solution of varying concentration, 50 μL radioligand-solution (8 nM; resulting in 2 nM in the assay) and finally 50 μL of receptor preparation (approx. 1.5 mg/mL) were given into a well of a microplate equipped with a filter. The plate was closed and stirred for 2.5 h at 37° C. and 500 rpm. Following that the solvents were removed by a harvester through the filter. After rinsing with H2O the filter was measured in a scintillation counter ([^3H]-protocol).

Compound | melting point [°C] | Ki (σ2-receptor) [nM] | Ki (σ1-receptor) [nM] | inhibition at 1 µM (σ2-receptor) [%]
c1ccc(-n2ncc3c2CCOC3CN2CCCCC2)cc1 (stereo not shown) [Example 1, 1-Phenyl-4-(piperidin-1-ylmethyl)-1,4,6,7-tetrahydro-pyrano[4,3-c]pyrazole] | 91 | 453 | 10.5 ± 1.16 | –
c1ccc(C2CCN(CC3OCCc4c3cnn4-c3ccccc3)CC2)cc1 (stereo not shown) [Example 2, 1-Phenyl-4-(4-phenylpiperidin-1-ylmethyl)-1,4,6,7-tetrahydropyrano[4,3-c]pyrazole] | – | 8.3 ± 2.66 | 1.6 ± 0.41 | –
c1ccc(-n2ncc3c2CCOC3CN2CCOCC2)cc1 (stereo not shown) [Example 3, 4-(Morpholin-4-ylmethyl)-1-phenyl-1,4,6,7-tetrahydro-pyrano[4,3-c]pyrazole] | 115 | – | 169 ± 39.6 | 5
c1ccc(N2CCN(CC3OCCc4c3cnn4-c3ccccc3)CC2)cc1 (stereo not shown) [Example 4, 1-Phenyl-4-(4-phenylpiperazin-1-ylmethyl)-1,4,6,7-tetrahydropyrano[4,3-c]pyrazole] | 151 | 210 ± 54.2 | 42.3 ± 3.32 | –
CN1CCN(CC2OCCc3c2cnn3-c2ccccc2)CC1 (stereo not shown) [Example 5, 4-(4-Methylpiperazin-1-ylmethyl)-1-phenyl-1,4,6,7-tetrahydropyrano[4,3-c]pyrazole] | 66 | – | 219 ± 7.22 | 13
c1ccc(-n2ncc3c2CCOC3CN2CCCC2)cc1 (stereo not shown) [Example 6, 1-Phenyl-4-(pyrrolidin-1-ylmethyl)-1,4,6,7-tetrahydro-pyrano[4,3-c]pyrazole] | 89 | 322 | 59.3 ± 11.2 | –
CN(C)CC1OCCc2c1cnn2-c1ccccc1 (stereo not shown) [Example 7, N,N-Dimethyl-1-(1-phenyl-1,4,6,7-tetrahydropyrano[4,3-c]pyrazole-4-yl)methanamine] | 103 | – | 1380 | 12
c1ccc(-n2ncc3c2CCOC3CCN2CCCCC2)cc1 (stereo not shown) [Example 8, 1-Phenyl-4-(2-piperidin-1-yl-ethyl)-1,4,6,7-tetrahydro-pyrano[4,3-c]pyrazole] | – | 536 | 2.98 ± 0.72 | –
c1ccc(C2CCN(CCC3OCCc4c3cnn4-c3ccccc3)CC2)cc1 (stereo not shown) [Example 9, 1-Phenyl-4-[2-(4-phenyl-piperidin-1-yl)-ethyl]-1,4,6,7-tetrahydro-pyrano[4,3-c]pyrazole] | – | 15.1 ± 2.98 | 0.988 ± 0.07 | –
c1ccc(N2CCN(CCC3OCCc4c3cnn4-c3ccccc3)CC2)cc1 (stereo not shown) [Example 11, 1-Phenyl-4-[2-(4-phenyl-piperazin-1-yl)-ethyl]-1,4,6,7-tetrahydro-pyrano[4,3-c]pyrazole] | – | 431 | 2.94 ± 0.43 | –
CN(C)CCC1OCCc2c1cnn2-c1ccccc1 (stereo not shown) [Example 14, Dimethyl-[2-(1-phenyl-1,4,6,7-tetrahydro-pyrano[4,3-c]pyrazol-4-yl)-ethyl]-amine] | – | 1280 | 24 ± 2 | –
